Biological target: T1, NS3 genotype 1b protease (Hepatitis C virus genotype 1b, UniProt Q9WMX2, E1202G)
T1 construct: Purified NS3 protease domain (amino acids 1-181) of the genotype 1b and 3a virus were generated as above; K3 hexahistidine tag (N); rTEV protease cleavage site (N); made in house; host or cells: E. coli BL21AI, pET28 vector p28-N6H-Tev-NS3(181)1b
Assay: Ki determination, NS3 protease genotype 1b (fluorogenic depsipeptide substrate)
Type: biochemical
Summary of the method: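 The His-tagged HCV NS3 protease domain (residues 1-181, genotype 1b con-1) was expressed in E. coli, and 50 pM enzyme with 20 μM NS4A peptide was used. Inhibitor (100 nM to 5 pM, 3-fold steps) was pre-incubated 1 h at room temperature in 50 mM HEPES, 40% glycerol, 0.05% Triton X-100, 10 mM DTT, 10% DMSO. The reaction was started with 4 μM fluorogenic substrate, and fluorescence (ex 340/em 490 nm) was read every 30 s between 90 and 120 min. Ki^app came from fitting rates with the Morrison equation.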

COc1ccc2nc3c(nc2c1)O[C@H]1CN(C(=O)[C@H](C(C)(C)C)NC(=O)O[C@@H]2C[C@H]2CCCCC3F)[C@H](C(=O)N[C@]2(C(=O)NS(=O)(=O)C3(C)CC3)C[C@H]2C(F)F)[C@@H]1C (stereo partly drawn) [Example 47, (1aR,5S,8S,9S,10R,22aR)-5-tert-butyl-N-[(1R,2R)-2-(difluoromethyl)-1-{[(1-methylcyclopropyl)sulfonyl]carbamoyl}cyclopropyl]-18-fluoro-14-methoxy-9-methyl-3,6-dioxo-1,1a,3,4,5,6,9,10,18,19,20,21,22,22a-tetradecahydro-8H-7,10-methanocyclopropa[18,19][1,10,3,6]dioxadiazacyclononadecino[11,12-b]quinoxaline-8-carboxamide]
Ki: 70 pM

From patent US20150175655A1 (priority 2012, published 2015)
